Results: article PMC6974524 (Frontiers in Microbiology, 2020)
≈ marks a conversion by molar mass, not a printed value.

What was measured:
Mtb-KD = assay type: cell-based, Mycobacterium tuberculosis
clinical Mtb strains = experiment: microbe, parasite or virus in culture; assay type: cell-based, Mycobacterium tuberculosis; conditions: Mycobacterium tuberculosis; range over standard and clinical strains (abstract); read-out: MIC for the standard and clinical drug-resistant Mtb strains

| SMILES | MIC, ddlA knocked-down (Mtb-KD) [µg/mL] | MIC, ddlA overexpressed (Mtb-KD) [µg/mL] | MIC (clinical Mtb strains) [µg/mL] |
| --- | --- | --- | --- |
| N[C@@H]1CON=C1O [DCS, D-cycloserine, reference compound] | 1 (≈ 9.79 µM) | 32 (≈ 313 µM) | – |
| OC1(c2ccc(OC(F)F)cc2)C[N+](c2ccccc2)=C2CCCCN21 (centres unmarked) [IMB-0283] | 0.25 | 2 | 0.25 to 4 |
